Series [1] concerns Caco-2 cells.
Series [2] concerns MRPs. The series is described as follows: Caco-2 pump out assay, CMFDA excretion. It is filed as cell-based. To be noted: for reduction of kout of CMFDA: 50 µM (elacridar 10 µM), p < 0.001; for effect on rate out of CMFDA: 50 µM (cyclosporin A 10 µM; doxorubicin 20 µM).
For series [3], the system named is P-gp. To be noted: read-out: P-gp IC50 based on the digoxin ER; cited from earlier work.
Series [4] has as its system P-gp/BCRP.
Series [5] relates to P-gp/BCRP. Description: Caco-2 pump out assay, rhodamine 123 excretion.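 For all read-outs here: Caco-2 cells loaded 120 min with 10 µM rhodamine 123, then dye efflux read by fluorescence at 37 °C every 2 min for 1 h, Kout as slope, compared against compound-free.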 To be noted: for decrease of Kout of R123: 50 µM (cyclosporin A, elacridar, TPGS 10 µM; doxorubicin 20 µM); for Ratio Kout 96/384 wells, P-gp/BCRP: Kout R123 96-well / 384-well.
Series [6] in a line: Bidirectional transport (Papp) across Caco-2 monolayers on 24-well inserts, 21 days. To be noted: human, Caco-2, pH 7.4.
The subject of series [7] is MRPs. Further details: method as in PMID 21415249. To be noted: read-out: MRPs IC50 published value; cited from earlier work.
The subject of series [8] is P-gp. Particulars: cited from earlier work.
Series [9] concerns BCRP. Particulars: cited from earlier work.
The subject of series [10] is MRPs. To be noted: cited from earlier work.
In series [11] the test system is efflux pump activity in Caco-2 cells. Description: b→a permeability of doxorubicin across Caco-2 with efflux pump inhibitors. To be noted: doxorubicin 20 µM; cyclosporin A 10 µM, elacridar 0.5 µM. The format is in vitro ADME. In general terms: Caco-2 monolayers are a common model of the intestinal barrier.

Like-named read-outs stand apart in the source and are kept apart here.

The values that follow come from PMC6888615, “A Miniaturized Pump Out Method for Characterizing Molecule Interaction with ABC Transporters” (International Journal of Molecular Sciences, 2019).

In the case of Lucifer yellow, in series [1], the “Papp of Lucifer yellow (apical-to-basal)” value was 0.066 ± 0.016 × 10^−6 cm/s.
`COc1ccc([C@@H]2Sc3ccccc3N(CCN(C)C)C(=O)[C@@H]2OC(C)=O)cc1` [diltiazem]: the “Transporter interaction, MRPs” value in [2] (96 wells) and in series [2] (384 wells) was “−” each time.
The term IC50 denotes the concentration that gives 50% inhibition. In the case of `C=C[C@H]1C[N@@]2CC[C@H]1C[C@@H]2[C@@H](O)c1ccnc2ccc(OC)cc12` [quinidine], in series [3], the IC50 was 4.9 ± 0.9 µM.
For the compound `O=C(O)Cc1ccccc1Nc1c(Cl)cccc1Cl` [diclofenac], the “Transporter interaction, MRPs” value in series [2] (96 wells) and in series [2] (384 wells) was “−” throughout.
As for `CO[C@H]1/C=C/O[C@@]2(C)Oc3c(C)c(O)c4c(O)c(c(/C=N/N5CCN(C)CC5)c(O)c4c3C2=O)NC(=O)/C(C)=C\C=C\[C@H](C)[C@H](O)[C@@H](C)[C@@H](O)[C@@H](C)[C@H](OC(C)=O)[C@@H]1C` [rifampicin], the “reduction of kout of CMFDA” value in series [2] is listed as “more than 20%”. The “Transporter interaction, P-gp/BCRP” value in series [4] (96 wells) and in series [4] (384 wells) was “+ (Interaction with efflux pumps when Kout ≤ 80% of control)” each time. In series [5] (p < 0.001), the “decrease of Kout of R123” value is “more than 30%”. In [5], the “Ratio Kout 96/384 wells, P-gp/BCRP” value stood at 1.12.
In general, Papp A→B refers to how fast a substance crosses the layer from the apical side. High values mean fast passage, low ones slow passage. As a reminder, the Papp B→A is how fast a substance crosses the layer from the basolateral side. As to `OC[C@@H](O)[C@@H](O)[C@H](O)[C@H](O)CO` [mannitol, Mannitol D-[1-14C]], in series [6], the Papp A→B at 1 h amounted to 0.26 ± 0.03 ×10⁻⁶ cm/s and the Papp B→A at 1 h is 0.32 ± 0.03 ×10⁻⁶ cm/s.
Regarding `CCC1(c2ccccc2)C(=O)NC(=O)NC1=O` [phenobarbital], in series [5], the “kout Rho 123, mean” value is 107.1 ± 10.0 pmol.min^−1.mg^−1 Protein and the “Ratio Kout 96/384 wells, P-gp/BCRP” value came to 1.09.
Take `CC[C@]1(O)C[C@@H]2CN(CCc3c([nH]c4ccccc34)[C@@](C(=O)OC)(c3cc4c(cc3OC)N(C)[C@H]3[C@@](O)(C(=O)OC)[C@H](OC(C)=O)[C@]5(CC)C=CCN6CC[C@]43[C@@H]65)C2)C1` [vinblastine]: in series [2], the “reduction of kout of CMFDA” value is on record as “more than 20%”. Moreover, in series [5] (p < 0.001), the “decrease of Kout of R123” value is reported as “more than 30%”. Further, the “Transporter interaction, P-gp/BCRP” value in series [5] (96 wells) and in [5] (384 wells) was “+ (Interaction with efflux pumps when Kout ≤ 80% of control)” in each case. Further, the “Ratio Kout 96/384 wells, P-gp/BCRP” value in series [5] is listed as 0.99.
`CC(=O)Nc1ccc(O)cc1` [acetanomiphen]: in series [5], the “kout Rho 123, mean” value is recorded as 113.7 ± 12.6 pmol.min^−1.mg^−1 Protein and the “Ratio Kout 96/384 wells, P-gp/BCRP” value is reported as 1.08.
The term efflux ratio denotes the permeability from basolateral to apical divided by that in the opposite direction, in the common usage. Consider `COc1cccc2c1C(=O)c1c(O)c3c(c(O)c1C2=O)C[C@@](O)(C(=O)CO)C[C@@H]3O[C@H]1C[C@H](N)[C@H](O)[C@H](C)O1` [doxorubicin], for which, in [2], the “effect on rate out of CMFDA” value is listed as “decreased strongly”. Also, the “Transporter interaction, MRPs” value in series [2] (96 wells) is reported as “+ (Interaction with efflux pumps when Kout ≤ 80% of control)”. In addition, the “Transporter interaction, MRPs” value in series [2] (384 wells) is “−”. The “Transporter interaction, P-gp/BCRP” value in [4] (96 wells) is “+ (Interaction with efflux pumps when Kout ≤ 80% of control)”. The “Transporter interaction, P-gp/BCRP” value in [4] (384 wells) is given as “+ (Interaction with efflux pumps when Kout ≤ 80% of control)”. The “decrease of Kout of R123” value in series [5] (p < 0.001) is listed as “more than 30%”. For the same compound, in [5], the “Ratio Kout 96/384 wells, P-gp/BCRP” value came out at 1.03. In addition, in [6], the apparent permeability from apical to basolateral (Papp A→B) at 1 h is 0.36 ± 0.03 ×10⁻⁶ cm/s; the Papp B→A at 1 h was 7.6 ± 0.4 ×10⁻⁶ cm/s; the efflux ratio at 1 h, 20 µM amounted to 21.9 ± 1.11.
Take `COC(=O)c1ccccc1-c1c2ccc(=N)cc-2oc2cc(N)ccc12` [R123, rhodamine 123]: in series [6], the Papp A→B at 1 h was determined as 1.51 ± 0.01 ×10⁻⁶ cm/s; the apparent permeability from basolateral to apical (Papp B→A) at 1 h turned out to be 8.94 ± 0.4 ×10⁻⁶ cm/s; the efflux ratio at 1 h, 20 µM stood at 5.96 ± 0.26.
Regarding `CN(C)C(=O)C(CCN1CCC(O)(c2ccc(Cl)cc2)CC1)(c1ccccc1)c1ccccc1` [loperamide], the “reduction of kout of CMFDA” value in [2] is on record as “more than 20%”. Also, the “Transporter interaction, MRPs” value in series [2] (96 wells) and in series [2] (384 wells) was “+ (Interaction with efflux pumps when Kout ≤ 80% of control)” throughout. Moreover, the “kout Rho 123, mean” value in [5] was 42.0 ± 4.9 pmol.min^−1.mg^−1 Protein. In series [5] (p < 0.001), the “decrease of Kout of R123” value is “more than 30%”. Moreover, the “Transporter interaction, P-gp/BCRP” value in series [5] (96 wells) and in series [5] (384 wells) was “+ (Interaction with efflux pumps when Kout ≤ 80% of control)” each time. Further, the “Ratio Kout 96/384 wells, P-gp/BCRP” value in series [5] came to 1.01.
With `CN(C)C(=O)CCSC(SCCC(=O)O)c1cccc(C=Cc2ccc3ccc(Cl)cc3n2)c1` (centres unmarked) [MK571, 3-[[3-[2-(7-chloroquinolin-2-yl)vinyl]phenyl]-(2-dimethylcarbamoylethylsulfanyl)methylsulfanyl] propionic acid], in [2], the “effect on rate out of CMFDA” value was “decreased strongly”. Further, the “Transporter interaction, MRPs” value in [2] (96 wells) and in series [2] (384 wells) was “+ (Interaction with efflux pumps when Kout ≤ 80% of control)” throughout. For the same compound, the IC50 was 3.8 µM in series [2] (read-out: IC50 towards MRPs activity (CMFDA excretion), non-linear regression of pump out assay data); 2.43 µM in series [7]; 26 µM in [8]; 50 µM in series [9]; 10 µM in series [10]. Also, the “kout Rho 123, mean” value in series [5] came out at 70.9 ± 10.6 pmol.min^−1.mg^−1 Protein. The “Transporter interaction, P-gp/BCRP” value in series [5] (96 wells) and in series [5] (384 wells) was “+ (Interaction with efflux pumps when Kout ≤ 80% of control)” in each case. Moreover, in [5], the “Ratio Kout 96/384 wells, P-gp/BCRP” value is on record as 1.19. In addition, the “effect on rate out of cell of R123” value in [5] (MK571 50 µM, p < 0.001) was “slight reduction”.
Consider `COc1cc2c(cc1OC)CN(CCc1ccc(NC(=O)c3cccc4c(=O)c5cccc(OC)c5[nH]c34)cc1)CC2` [elacridar], for which the “reduction of b→a permeability of doxorubicin” value in [11] was found to be 25%. In series [2], the “reduction of kout of CMFDA” value is given as “more than 20%”. The “Transporter interaction, MRPs” value in series [2] (96 wells) and in series [2] (384 wells) was “+ (Interaction with efflux pumps when Kout ≤ 80% of control)” each time. Besides, the “Transporter interaction, P-gp/BCRP” value in series [4] (96 wells) and in [4] (384 wells) was “+ (Interaction with efflux pumps when Kout ≤ 80% of control)” throughout. The “decrease of Kout of R123” value in [5] (p < 0.001) is “more than 30%”. Besides, in [5], the “Ratio Kout 96/384 wells, P-gp/BCRP” value was determined as 0.81.
With “D-α-Tocopherol polyethylene glycol 1000 succinate”, the “kout Rho 123, mean” value in series [5] is given as 33.7 ± 2.7 pmol.min^−1.mg^−1 Protein. For the same compound, the “decrease of Kout of R123” value in series [5] (p < 0.001) is given as “more than 30%”. Moreover, the “Transporter interaction, P-gp/BCRP” value in series [5] (96 wells) and in series [5] (384 wells) was “+ (Interaction with efflux pumps when Kout ≤ 80% of control)” in each case.
